The values below come from US20040063626A1 (priority 2000, published 2004).

The test concerns C57BL/6 mice. Nature of the test: Hair regrowth test on shaved backs of C57BL/6 mice. Type of test: in vivo. To be noted: 100 μl (0.1% w/v) applied over hair removed area once a day for 30 days; female C57BL/6 mice. An excerpt: C57BL/6 mice (female), 42˜49 days old, were used in this test.
First of all, mice were removed of hair on their backs using an electric shaver, and weighed. The mice were divided into several groups with weights equally distributed. […] The degree of hair growth was observed by naked eye and the back sides of the mice were photographed.

Regarding Cyclosporin A 4,7-bis(thioamide), the “degree of hair growth observed by naked eye (hair regrowth effect)” value is listed as “no significant effect”.

Turning to Cyclosporin A 4-thioamide, the “degree of hair growth observed by naked eye (hair regrowth effect)” value was “no significant effect”.
